Test results taken from PMC8539010, “Utility of Bioluminescent Homogeneous Nucleotide Detection Assays in Measuring Activities of Nucleotide-Sugar Dependent Glycosyltransferases and Studying Their Inhibitors” (Molecules, 2021).

Assays:
[1] = biological target: T1, FUT7 (Fucosyltransferase 7) (Homo sapiens, UniProt Q11130); assay: GDP-Glo bioluminescent enzyme assay, dose response with fetuin and GDP-fucose; type: biochemical
T1 sequence (Q11130 1-342): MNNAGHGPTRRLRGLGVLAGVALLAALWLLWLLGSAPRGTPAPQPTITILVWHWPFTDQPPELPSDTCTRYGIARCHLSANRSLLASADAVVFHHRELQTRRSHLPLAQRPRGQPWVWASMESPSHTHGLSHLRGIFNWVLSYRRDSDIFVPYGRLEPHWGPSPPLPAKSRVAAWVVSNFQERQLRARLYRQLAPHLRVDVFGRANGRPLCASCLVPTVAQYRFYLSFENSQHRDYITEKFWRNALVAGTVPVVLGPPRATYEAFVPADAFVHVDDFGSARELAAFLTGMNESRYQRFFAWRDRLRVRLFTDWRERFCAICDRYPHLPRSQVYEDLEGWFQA

[2] = biological target: T2, OGT (O-GlcNAc Transferase) (Homo sapiens, UniProt O15294); assay: UDP-Glo bioluminescent enzyme assay, dose response with OGT peptide and UDP-GlcNAc; type: biochemical
T2 sequence (O15294 2-236 isoform O15294-4): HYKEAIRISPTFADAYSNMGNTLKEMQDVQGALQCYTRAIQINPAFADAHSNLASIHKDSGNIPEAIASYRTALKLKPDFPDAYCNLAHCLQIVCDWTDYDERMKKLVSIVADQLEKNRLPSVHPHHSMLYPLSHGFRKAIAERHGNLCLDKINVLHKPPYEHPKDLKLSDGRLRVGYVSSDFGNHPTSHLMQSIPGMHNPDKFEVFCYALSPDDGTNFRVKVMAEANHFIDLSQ

IC50 [2]	Structure (SMILES)	IC50 [1]
–	O=C(O)c1cc(O)c(O)c(O)c1 [Gallic acid]	0.6 µM
58 µM	O=C(O)C1CC(=O)N(CCC23CC4CC(CC(C4)C2)C3)C(=Nc2ccc(Cl)cc2)S1 (stereo not drawn) [ST045849]	–
55 µM	N#Cc1c(SCc2ccc(C(=O)O)cc2)nc2c(c1-c1cccs1)CCCC2 [ST078925]	–
